# Laboratory results: patent publication US11229652B2, “Treatments for autoimmune disease” (THE PROVOST, FELLOWS, FOUNDATION SCHOLARS, AND THE OTHER …, priority 2014, dated 2022)
# Tests used:
# [1] = target: queuine-insertase enzyme complex (Homo sapiens, UniProt Q9BXR0); assay: [14C] guanine displacement assay (queuine-insertase substrate); format: biochemical
# Source text: The skilled reader will be aware of methods for determining whether or not a particular molecule is a substrate for the queuine-insertase enzyme complex. For example, molecules capable of acting as a queuine-insertase enzyme complex substrate may be identified by use of a displacement assay as described below (FIG. 1):
# Production of [8-^14C] Guanine Labeled tRNA (tRNA*)
# Before adding the 8-[^14C] guanine solution to the reaction the solution was neutralised with an equal volume (vol/vol) 0.01 M NaOH, as the [8-^14C] Guanine is supplied in 0.01 M HCl aqueous solution. A stock solution of yeast tRNA from Saccharomyces cerevisiae was made to a concentration of 2 absorbance units (260 nm) in ultrapure nuclease-free water. The recombinant Escherichia coli (E. coli) tRNA guanine transglycosylase enzyme (E. coli TGT) containing an N-terminal polyhistidine tag was produced in BL21 BL21(DE3) tgt:Kmr cells as described previously (Boland et al., 2009).
# The reaction was incubated for 2 h at 37° C. After incubation the reaction was made up to 400 μL with buffer. […] The tRNA* pellet was resuspended in 20 μL nuclease-free water and the concentration measured spectrophotometrically at A260. […]
# After incubation the reaction was loaded onto the column and spun at 0.1×g for 10 seconds. […] The vials containing the flow-through and washes are counted for displaced [^14C] guanine. […]
# [2] = system: HPRT:TGT double knockout spleenocytes; assay: Proliferation of TGT:HPRT double knockout cells; format: cell-based; conditions: 100 μM, FIG. 4c
# Source text: (§1) FIGS. 4a, 4b, 4c, and 4d depict the molecules effects on total percentage of proliferation in wild-type spleenocytes, HPRT knockout spleenocytes, HPRT:TGT double knockout spleenocytes, and wild-type versus single TGT knockout spleenocytes respectively;
# wild-type T cells = assay: Proliferation of wild-type cells; format: cell-based; conditions: 100 μM, FIG. 4a
# Source text: as §1
# [3] = system: chronic monophasic EAE disease; assay: Chronic monophasic EAE disease in mice; format: in vivo, mice (C57BL/6)
# Protocol: To assess the potential of these compounds in vivo, a chronic monophasic EAE disease in mice was induced before treatment with the new chemical entity (NCE). EAE Disease was induced in 8-10 week old female mice (C57BL/6) by sub-cutaneous (s.c.) injection of 200 II emulsion containing 150 μg […] peptide (Genscript) in Complete Freund's Adjuvant (CFA; containing 5 mg/ml heat-inactivated Mycobacterium tuberculosis). On the same day, mice were administered 500 ng Pertussis Toxin (Kaketsuken, Japan) intraperitoneally (i.p.) and again two days later. Disease severity was recorded every 24 hours: 0-Normal; 1-flaccid tail; 2-imparied/wobbly gait; 3-complete hind limb weakness; 4-hind limb and forelimb paralysis; 5-moribund state/dead. Protocol is based on the Nature Protocols for Active induction of experimental allergic encephalomyelitis, which includes the scoring methodology: • Stromnes I M, Goverman J M (2006) Active induction of experimental allergic encephalomyelitis. Nat Protoc. 1(4):1810-9.
# The EAE score relates to an assessment of disease progression with respect to issues like tail paralysis and limb paralysis, a higher score is a worse condition. A score of 1 indicates decreased tail tone, a score of 2 indicates hind leg weakness (paraparesis), a score of 3 indicates hind limb paralysis and/or incontinence. Note that the untreated animals have a continuous and progressive worsening of disease.
# This contrasts with the sustained drop in body weight of non-treated EAE diseased animals to a level 86.4% that of controls at 21 dpi (17.8 grams versus 20.6 grams). Motor coordination and hind-limb strength were also evaluated by the ability of mice to cross a horizontal bar (FIG. 7). Non-diseased animals crossed the bar with an average time of 4.3±0.57 seconds.
# HPRT [4] = target: T1, HPRT (Homo sapiens, UniProt P00492); assay: HPRT assay (substrate or inhibitor of HPRT); format: biochemical; conditions: in vitro, FIG. 2
# T1 sequence (P00492 1-218): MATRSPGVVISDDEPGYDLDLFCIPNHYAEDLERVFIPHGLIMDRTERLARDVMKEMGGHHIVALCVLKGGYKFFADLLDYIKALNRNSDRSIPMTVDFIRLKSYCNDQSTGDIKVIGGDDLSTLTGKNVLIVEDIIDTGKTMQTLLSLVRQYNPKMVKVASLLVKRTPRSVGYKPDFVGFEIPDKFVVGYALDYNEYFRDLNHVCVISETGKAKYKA
# Source text: Similarly, the skilled reader will be aware of methods suitable for determining whether a compound is a substrate or inhibitor of HPRT. For example, molecules that are […] for HPRT may be identified by use of the following assay:
# Assay to Evaluate Compounds as Substrates or Inhibitors of the Hypoxanthine-Guanine Phosphoribosyltransferase Enzyme or ‘HPRT Assay’ (FIG. 2).
# Preparation and Equilibration of Column:
# Dowex-1×8, mesh size 200-400, was weighed out in a sterile 50 ml tube and washed 3 times with aqueous 1 M HCl to charge the resin. The resin was then washed 5-6 times with (20 mls each) Milli-Q H2O until a neutral pH was reached. Columns (Bio-rad 10 mL plastic columns) were set up with 1 mL of wet Dowex (wet mix applied, allowed to settle and more applied until a packed volume of 1 mL was reached). The packed resin was rinsed with 10 volumes (v/v) milli-Q H2O to ensure that a neutral pH and consistent packing was achieved.
# HPRT Reactions are set up in 100 μL volume in triplicate with the following components: […]
# After inactivation, the reactions were cooled to room temperature (using ice), before being applied to a 1 mL packed resin column of Dowex-1×8, mesh size 200-400. […] 15 mL of scintillation cocktail (Ecoscint A) was added and vials counted to evaluate the level of conversion of [8-^14C]-guanine to GMP. […]
# TGT KO cells = assay: Proliferation of TGT knockout cells; format: cell-based; conditions: 100 μM, FIG. 4d
# Source text: as §1
# [5] = system: Experimental Autoimmune Encephalomyelitis; EAE; conditions: earlier work; cited from earlier work
# DNA = conditions: incorporated into DNA after HPRT activity; cited from earlier work
# HPRT [6] = target: T1, HPRT; conditions: higher for HPRT; cited from earlier work
# queuine-insertase enzyme complex, sequence (Q9BXR0 whole entry): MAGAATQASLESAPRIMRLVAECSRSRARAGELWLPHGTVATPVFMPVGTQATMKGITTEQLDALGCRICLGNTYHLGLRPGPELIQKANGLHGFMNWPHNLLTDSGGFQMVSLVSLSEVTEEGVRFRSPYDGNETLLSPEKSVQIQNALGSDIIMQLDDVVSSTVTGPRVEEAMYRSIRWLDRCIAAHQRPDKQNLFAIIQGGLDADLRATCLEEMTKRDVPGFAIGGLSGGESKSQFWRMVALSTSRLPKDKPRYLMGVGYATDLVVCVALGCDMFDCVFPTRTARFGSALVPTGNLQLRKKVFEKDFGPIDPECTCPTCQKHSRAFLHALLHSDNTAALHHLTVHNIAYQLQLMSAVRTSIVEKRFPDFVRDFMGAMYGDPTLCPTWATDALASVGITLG
# queuine-insertase enzyme complex, sequence (Q9H974 whole entry partner): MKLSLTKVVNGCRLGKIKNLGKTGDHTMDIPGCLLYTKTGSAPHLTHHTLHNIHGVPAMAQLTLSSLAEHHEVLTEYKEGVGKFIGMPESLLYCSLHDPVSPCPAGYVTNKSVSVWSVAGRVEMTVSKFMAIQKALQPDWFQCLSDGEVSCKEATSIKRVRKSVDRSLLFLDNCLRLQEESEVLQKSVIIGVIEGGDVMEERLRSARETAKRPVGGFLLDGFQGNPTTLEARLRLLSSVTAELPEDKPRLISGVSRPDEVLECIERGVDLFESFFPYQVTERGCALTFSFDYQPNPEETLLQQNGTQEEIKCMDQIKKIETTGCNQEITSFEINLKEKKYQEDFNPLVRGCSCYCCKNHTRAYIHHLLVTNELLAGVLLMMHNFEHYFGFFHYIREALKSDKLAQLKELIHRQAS
smiles,measurement,setting,value
"Cl.Nc1nc2[nH]cc(CNCCCc3ccccc3)c2c(=O)[nH]1 [Compound I, N-((2-amino-4-oxo-4,7-dihydro-3H-pyrrolo[2,3-d]pyrimidin-5-yl)methyl)-3-phenylpropan-1-aminium chloride]",substrate for TGT (queuine-insertase enzyme complex),"[1]; in vitro, recombinant TGT enzyme, FIG. 1",substrate for TGT
same,effect on proliferation,[2],essentially unaffected
same,proliferation,wild-type T cells,less than 50%
same,EAE score outcome after 4 daily treatments,"[3]; EAE mice, 30 mg/kg, i.p., FIG. 5",disease free
same,time to reversal of symptoms,"[3]; EAE mice, 30 mg/kg, i.p., highest dosage, FIG. 5",≤ 24 h
same,EAE disease progression,"[3]; EAE mice, lower doses, FIG. 5",disease progression was halted and reversed
same,motor coordination and hind-limb strength (horizontal bar crossing),"[3]; EAE mice, within 4 treatments, FIG. 7",fully restored the performance of EAE diseased mice to control levels
same,weight level relative to controls,"[3]; treated EAE mice, 21 days post inoculation, FIG. 6",96.6%
same,body weight,"[3]; treated EAE mice, 21 days post inoculation, controls 20.6 grams, FIG. 6",19.9 grams
same,substrate or inhibitor of HPRT,HPRT [4],not to be a substrate or inhibitor
same,effect on proliferation,TGT KO cells,lack of effect
"Nc1nc2nc[nH]c2c(=S)[nH]1 [Example 6TG, 6-thioguanine]",effect on the murine model of chronic MS (EAE),[5],dramatic effect
same,genotoxicity,DNA,genotoxic
same,substrate potency for HPRT relative to queuine-insertase enzyme complex,HPRT [6],approx. 10 fold
"Nc1nc2[nH]cc(CN[C@H]3C=C[C@H](O)[C@@H]3O)c2c(=O)[nH]1 [queuine, 2-amino-5-((((1S,4S,5R)-4,5-dihydroxycyclopent-2-en-1-yl)amino)methyl)-3,7-dihydro-4H-pyrrolo[2,3-d]pyrimidin-4-one, reference compound]",maximum displacement of [14C] guanine,"[1]; 200 μM compound, background ≤10 pmol, ≥50 pmol counts as positive substrate",240 pmol
